Laboratory results reported in US20170114060A1 (priority 2014, published 2017).
Entries after “also recorded” stand apart in the source; their conditions may differ.

What was measured:
CRAC/Orai1 channels = CRAC/Orai1 channels (Homo sapiens, UniProt Q96D31); format: cell-based
Ebola VP40 (eVP40) VLPs = format: cell-based
Influenza Virus A = format: cell-based
HEK293T cells [1] = system: HEK293T cells
HEK293T cells [2] = system: HEK293T cells; remark: listed apart in the source
[3] = system: Marburg VP40 (mVP40) VLPs; format: cell-based
[4] = system: Junin virus (Candid-1 strain); format: cell-based
[5] = system: vesicular stomatitis virus (VSV); format: cell-based
VP40-APT/PY VLP budding = format: cell-based
retrovirus = conditions: cited from earlier work
[6] = system: Ebola VP40 induced intracellular calcium increase; format: cell-based
HIV-1 = format: cell-based
LASV = format: cell-based, Lassa fever virus
JUNV = format: cell-based, Junin virus
MARV = format: cell-based, Marburg virus
EBOV = format: cell-based, Ebola virus
[7] = system: eVP40 GFP expressed in HEK cells; format: cell-based

Chain of CRAC/Orai1 channels (Q96D31 whole entry): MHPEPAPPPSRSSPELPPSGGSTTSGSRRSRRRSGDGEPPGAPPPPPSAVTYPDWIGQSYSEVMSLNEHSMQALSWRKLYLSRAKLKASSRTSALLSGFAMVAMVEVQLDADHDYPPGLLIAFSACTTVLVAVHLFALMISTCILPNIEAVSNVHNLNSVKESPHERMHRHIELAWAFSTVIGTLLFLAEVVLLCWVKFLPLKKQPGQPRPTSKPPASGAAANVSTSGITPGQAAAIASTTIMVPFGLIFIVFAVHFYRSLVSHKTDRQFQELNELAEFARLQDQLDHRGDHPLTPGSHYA

For c1ccc(C(c2ccccc2)c2noc(C3CCNCC3)n2)cc1 [FC-2121], the “inhibition of store-operated Ca2+ entry via CRAC/Orai channels” value (CRAC/Orai1 channels) was “partial dose-dependent inhibition of Tg-induced calcium entry; also recorded: can block calcium influx into cells via Orai; also recorded: reduce Orai-mediated calcium entry”, the “inhibition of eVP40 VLP formation” value (Ebola VP40 (eVP40) VLPs) was “a corresponding inhibition of VLP formation; also recorded: successful inhibition of Ebola VP40 VLP production” and the “reduction of live Influenza Virus A budding” value (Influenza Virus A) was “reduce live Influenza Virus A budding”. The “cell viability / cytotoxicity (MTT)” value (HEK293T cells [1]) was “without cell toxicity”, the cytotoxicity (HEK293T cells [2]) was “not cytotoxic” and the cytotoxicity (MDCK cells) was “not cytotoxic”.

With NCCOB(c1ccccc1)c1ccccc1 [2-APB, 2-aminoethoxydiphenylborate] the “concentration that fully inhibited CRAC channels” value (CRAC/Orai1 channels) was 50 µM, the “inhibition of store-operated Ca2+ entry via CRAC/Orai channels” value (CRAC/Orai1 channels) was “block store operated Ca^2+ influx; also recorded: blocked; also recorded: blocks Ca^2+ entry following Tg stimulation without affecting its release from the ER; also recorded: inhibition of Ca^2+ entry via CRAC channels” and the “effect on cellular eVP40 expression/accumulation” value (Ebola VP40 (eVP40) VLPs) was “neither 2-APB nor Synta66 inhibited cellular accumulation”. The “inhibition of eVP40 VLP formation” value (Ebola VP40 (eVP40) VLPs) was “inhibited eVP40 and mVP40 VLP budding”, the “effect on cellular mVP40 accumulation” value [3] was “neither 2-APB nor Synta66 inhibited cellular accumulation” and the “inhibition of mVP40 VLP budding” value [3] was “inhibited eVP40 and mVP40 VLP budding”. The “decrease in the number of foci formed by virions released from cells” value [4] was 10 fold, the “reduction of live Junin virus (Candid-1) foci / budding” value [4] was “a similar dose-dependent decrease in JUNV budding” and the “effect on cellular expression of VSV M protein” value [5] was “only a slight effect on cellular M protein expression; also recorded: little to no effect on cellular expression of VSV M protein”. The “inhibition of live VSV budding / titers” value [5] was “inhibited live VSV viral particle budding; also recorded: dose-dependent inhibition of VSV budding”, the “sensitivity of Alix Bro1-V rescue of VLP production” value (VP40-APT/PY VLP budding) was 2-APB sensitive and the “viability of cells under conditions mimicking infection experiments” value (VeroE6 cells) was “without effect on the viability of cells”.

In the case of Nc1ccc(C(=O)Nc2cccc(-c3nc(N4CCOCC4)c4oc5ncccc5c4n3)c2)cn1 [YM201636], the “inhibition of eVP40 VLP formation” value (Ebola VP40 (eVP40) VLPs) is listed as “dose-dependent reduction of Ebola VP40 VLP production” and the retrovirus budding (retrovirus) is listed as “inhibited retrovirus budding”.

In the case of Cc1cc(Cc2cc(C)cc(C(C)(C)C)c2O)c(O)c(Cc2cc(C)cc(C(C)(C)C)c2O)c1 [NSC 62914], the “block of Ebola VP40 induced intracellular calcium increase” value [6] was “block the Ebola VP40 induced intracellular calcium increase”.

For Cc1c(CC(C(=O)O)c2ccccc2)nn(-c2ccccc2)c1-c1ccccc1 (stereo not drawn) [FC-2122, 3-(4-methyl-1,5-diphenyl-1H-pyrazol-3-yl)-2-phenylpropanoic acid], the “inhibition of store-operated Ca2+ entry via CRAC/Orai channels” value (CRAC/Orai1 channels) was “partial dose-dependent inhibition of Tg-induced calcium entry; also recorded: inhibits Orai-mediated calcium entry; also recorded: can block calcium influx into cells via Orai”, the “cellular eVP40 expression” value (Ebola VP40 (eVP40) VLPs) was “not different from mock treated cells” and the “concentrations at which VP40 expression inhibited” value (Ebola VP40 (eVP40) VLPs) was “above 10 μM”. The “inhibition of eVP40 VLP formation” value (Ebola VP40 (eVP40) VLPs) was “a corresponding inhibition of VLP formation; also recorded: decreased to a comparable extent as by 2-APB; also recorded: inhibits; also recorded: successful inhibition of Ebola VP40 VLP production”, the “reduction of live Influenza Virus A budding” value (Influenza Virus A) was “reduce live Influenza Virus A budding” and the “inhibition of budding of live HIV-1” value (HIV-1) was “did not inhibit budding of live HIV-1”. For the same compound, the “cell viability / cytotoxicity (MTT)” value (HEK293T cells [1]) was “without cell toxicity”, the cytotoxicity (HEK293T cells [2]) was “not cytotoxic” and the cytotoxicity (MDCK cells) was “not cytotoxic”.

In the case of COc1ccc(OC)c(-c2ccc(NC(=O)c3ccncc3F)cc2)c1 [Synta66, N-(2′,5′-dimethoxy[1,1′-biphenyl]-4-yl)-3-fluoro-4-pyridinecarboxamide], the “inhibition of store-operated Ca2+ entry via CRAC/Orai channels” value (CRAC/Orai1 channels) was “blocks Ca^2+ entry following Tg stimulation without affecting its release from the ER; also recorded: inhibition of Ca^2+ entry via CRAC channels”, the “effect on cellular eVP40 expression/accumulation” value (Ebola VP40 (eVP40) VLPs) was “neither 2-APB nor Synta66 inhibited cellular accumulation” and the “effect on cellular mVP40 accumulation” value [3] was “neither 2-APB nor Synta66 inhibited cellular accumulation”. For the same compound, the “cellular expression of JUNV glycoprotein (GP)” value [4] was “No effect”, the “reduction of live Junin virus (Candid-1) foci / budding” value [4] was “dose-dependent reduction in the number of Junin foci; also recorded: reduces the number of JUNV foci in a dose-dependent manner” and the “effect on cellular expression of VSV M protein” value [5] was “without affecting expression of VSV M”. The “inhibition of live VSV budding / titers” value [5] was “dose-dependent inhibition of VSV budding; also recorded: inhibited VSV titers”, the “reduction in budding of live VSV” value [5] was “dose-dependent reduction in budding of live Vesicular Stomatitis Virus” and the “inhibition of live LASV budding and spread” value (LASV) was “steep dose-dependent inhibition; also recorded: dose-dependent reduction”. The “inhibition of live JUNV budding and spread” value (JUNV) was “steep dose-dependent inhibition; also recorded: dose-dependent reduction”, the “inhibition of live MARV budding and spread” value (MARV) was “steep dose-dependent inhibition; also recorded: dose-dependent reduction” and the “inhibition of live EBOV budding and spread” value (EBOV) was “steep dose-dependent inhibition; also recorded: dose-dependent reduction”. For the same compound, the “VP40-induced membrane protrusions / VLP structures at the plasma membrane” value [7] was “not prevelant; also recorded: inhibits the formation of VP40-induced membrane protrusions; also recorded: inhibition of EBOV VP40 protrusions from the plasma membrane; also recorded: reduces Ebola VP40-mediated virus-like particle formation at the plasma membrane” and the “VP40 expression and membrane localization” value [7] was “no difference in membrane localization of eVP40; also recorded: no apparent effect on VP40 expression or membrane localization; also recorded: does not result in altered expression of Ebola VP40 (green) at the plasma membrane”.

In the case of Cc1cc(CC(C(=O)O)c2ccc(Cl)cc2)nn1-c1ccc(Cl)cc1 (stereo not drawn) [FC-2399, 2-(4-Chloro-phenyl)-3-[1-(4-chloro-phenyl)-5-methyl-1H-pyrazol-3-yl]-propionic acid], the “inhibition of store-operated Ca2+ entry via CRAC/Orai channels” value (CRAC/Orai1 channels) was “reduce Orai-mediated calcium entry”, the “inhibition of live VSV budding / titers” value [5] was “significantly reduced budding of live Vesicular Stomatitis Virus in vitro in a dose-dependent manner” and the “reduction of live Influenza Virus A budding” value (Influenza Virus A) was “reduce live Influenza Virus A budding”. The “inhibition of budding of live HIV-1” value (HIV-1) was “reduces budding of live HIV-1”.

For CC1=C(c2cnc(NC(=O)c3c(F)cccc3F)cn2)CN(c2ncc(C)s2)CC1 [R02959, 2,6-difluoro-N-{5-[4-methyl-1-(5-methyl-thiazol-2-yl)-1,2,5,6-tetrahydro-pyridin-3-yl]-pyrazin-2-yl}-benzamide], the “inhibition of store-operated Ca2+ entry via CRAC/Orai channels” value (CRAC/Orai1 channels) was “blocks Ca^2+ entry following Tg stimulation without affecting its release from the ER”, the “potency as inhibitor of Orai1 relative to 2-APB or Synta66” value (CRAC/Orai1 channels) was ~10 fold and the “inhibition of Ca2+ entry via CRAC channels” value (CRAC/Orai1 channels; 5 μM) was “inhibits Ca^2+ entry via CRAC channels”. For the same compound, the “block of Ca2+ entry” value (CRAC/Orai1 channels; concentrations <5 μM) was 50-100 fold, the “effect on cellular eVP40 expression/accumulation” value (Ebola VP40 (eVP40) VLPs) was “without any effect on cellular VP40 expression” and the “inhibition of eVP40 VLP formation” value (Ebola VP40 (eVP40) VLPs) was “dose dependent inhibition of eVLP formation”. For the same compound, the “block of eVP40 production” value (Ebola VP40 (eVP40) VLPs; concentrations <5 μM) was 50-100 fold.

For C[C@H](CCC(=O)O)C[C@H](C)C[C@H](C)C(=O)/C=C(\O)[C@H](C)C[C@H](C)C/C=C/[C@@H](C)[C@@H](O)[C@@H](C)[C@@H](O)C[C@@H]1CC[C@@](C)([C@H]2CC[C@@](C)([C@@H](C)O)O2)O1 [ionomycin], the “rescue of VP40-APT/PY VLP budding mediated by the Bro1-V fragment of Alix” value (VP40-APT/PY VLP budding) was “did not enhance rescue”.

With CC(=O)N[C@@H](CS)C(=O)O [NAC, N-acetyl cysteine] the “block of Ebola VP40 induced intracellular calcium increase” value [6] was “block the Ebola VP40 induced intracellular calcium increase”.
